Our source for the IC50 values is PubChem BioAssay AID588771 (The Scripps Research Institute Molecular Screening Center, 2011).

The assay has as its target 3C-like protease (3CLpro), SARS coronavirus. Nature of the assay: SARS 3CLpro protease inhibitor potency, late-stage follow-up, biochemical, fluorescence, dose response, set 3 (AID 588771). As to conditions: purified 3CLpro, fluorogenic substrate cleavage.

SMILES strings stand for the structures. Activity calls are given as the source filed them. The rule behind the calls is not given here.

As to `CC(C)(C)NC(=O)[C@@H](c1cccnc1)N(C(=O)c1cnc[nH]1)c1ccc(C(C)(C)C)cc1`, the IC50 (as a rule, the concentration that gives 50% inhibition) was “inactive”.

Regarding `CC(C)(C)NC(=O)C(c1cnccn1)N(C(=O)c1ccco1)c1ccc(C(C)(C)C)cc1` (stereo not given), the concentration for half-maximal inhibition (IC50) was 5.5 µM.

For the molecule `CC(C)C(=O)Nc1ccc(N(C(=O)Cn2nnc3ccccc32)C(C(=O)NCc2ccccc2)c2cccc(F)c2)cc1` (stereo not given), the 50% inhibitory concentration (IC50) was 4.1 µM.

As to `Cn1cnc(C(=O)N(c2ccc(C(C)(C)C)cc2)C(C(=O)NC(C)(C)C)c2cccnc2)c1` (stereo not given), the IC50 entry was “inactive”.

Regarding `O=C(Nc1ccc(N(C(=O)Cn2nnc3ccccc32)C(C(=O)NCc2ccccc2)c2cccc(F)c2)cc1)C1CCC1` (stereo not given), the IC50 is 2.3 µM.

As to `CC(C)(C)NC(=O)C(c1cccnc1)N(C(=O)c1ccco1)c1ccc(Cc2ccccc2)cc1` (stereo not given), the IC50 result is “inactive”.

Consider `O=C(Nc1ccc(N(C(=O)Cn2nnc3ccccc32)C(C(=O)NCc2ccccc2)c2cccc(F)c2)cc1)C1CC1` (stereo not given), for which the IC50 is 3 µM.

Take `CC(C)(C)NC(=O)[C@H](c1cccnc1)N(C(=O)c1cnc[nH]1)c1ccc(C(C)(C)C)cc1`: the IC50 is 4.5 µM.

Consider `CC(C)(C)NC(=O)C(c1ccncc1)N(C(=O)c1ccco1)c1ccc(C(C)(C)C)cc1` (stereo not given), for which the IC50 entry was “inactive”.

Regarding `CC(C)(C)NC(=O)C(c1ccnnc1)N(C(=O)c1ccco1)c1ccc(C(C)(C)C)cc1` (stereo not given), the IC50 entry is “inactive”.
